Where a name gives a salt, the structure may show the parent alone.
Tests used:
Type in all cases: biochemical
[1] = molecular target: KDR (Homo sapiens, UniProt P35968); experiment: Enzyme assay for  (KDR), IC50 determination; conditions: 50 nM KDR, 500 μM ATP
Protocol: Enzyme assays for IC50 determinations were performed in 96-well titer plates, in a total reaction volume of 50 μL. Each reaction contained 1.5 μL of appropriate dilutions of inhibitor, 50 mM Hepes, pH 7.4, 1 mM DTT, 10 mM magnesium chloride, 2 mM phospho-poly(E4Y) (Sigma Chemical Company), 500 μM unlabeled ATP, 0.0025 μM [^33P]ATP (Amersham Pharmacia Biotech), and 50 nM KDR. All components except KDR were added to the wells, and the reaction was started by the addition of the enzyme. The reactions were mixed and incubated at room temperature for 1 hr, after which the reactions were quenched by the addition of 50 μL of 8% phosphoric acid. At this point, 90 μL aliquots of the samples were applied to positively charged DEAE 96-well filter plates (Millipore Corporation MADENOB10). The plates were incubated for 30 min at room temperature. The samples were aspirated and the wells were washed 3 times with 200 μL of 0.5% phosphoric acid. To each well, 50 μL of scintillation cocktail was added and counted for 60 sec in a TopCount microplate scintillation counter (Packard Instrument Company). The concentration of a compound that inhibited the activity of KDR by 50% (IC50) was determined based its inhibition curve.

[2] = molecular target: CDK5 complexed with p25 (Homo sapiens, UniProt Q00535); experiment: Cyclin dependent kinase activity assay, phosphorylation of synthetic peptide PKTPKKAKKLRRR; conditions: CDK5 complexed with p25, 0.1 mM ATP; read-out: CDK 5 Activity*
CDK5 complexed with p25, sequence (Q00535 whole entry): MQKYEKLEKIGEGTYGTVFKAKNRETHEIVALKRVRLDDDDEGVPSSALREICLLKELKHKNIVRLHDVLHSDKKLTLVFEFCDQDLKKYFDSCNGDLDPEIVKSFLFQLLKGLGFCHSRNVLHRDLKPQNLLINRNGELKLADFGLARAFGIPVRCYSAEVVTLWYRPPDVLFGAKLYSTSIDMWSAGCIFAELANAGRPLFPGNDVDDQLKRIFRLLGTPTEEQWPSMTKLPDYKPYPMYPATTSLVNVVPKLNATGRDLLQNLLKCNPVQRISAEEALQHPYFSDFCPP
CDK5 complexed with p25, sequence (Q15078 99-307 partner limits assumed): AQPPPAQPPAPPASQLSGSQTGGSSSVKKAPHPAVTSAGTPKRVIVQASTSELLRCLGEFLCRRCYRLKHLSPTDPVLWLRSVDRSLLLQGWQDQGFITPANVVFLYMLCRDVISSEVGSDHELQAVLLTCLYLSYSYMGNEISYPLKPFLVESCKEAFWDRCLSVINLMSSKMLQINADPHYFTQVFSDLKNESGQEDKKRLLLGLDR
Protocol: (§1) The assay of cyclin dependent kinase activity was determined by monitoring the phosphorylation of a synthetic peptide, PKTPKKAKKLRRR. The assay mixture contained 0.1 mM cold ATP, ^33P-γ-ATP (2000-4000 cpm/μL), 0.1 mM peptide, 1 mM DTT, and 10 mM MgCl2 in 100 mM HEPES buffer pH 7.4. The assay mixture, along with inhibitor and CDK enzyme (0.3-0.4 U/mL; either CDK5 complexed with p25, CDK2 complexed with complexed with cyclin A), was mixed together in a microtiter plate in a final volume of 40 μL, sealed and incubated for 2 hours at 30° C. Following incubation, a 15 μL aliquot was added to a Whatman P81 filtration plate containing 100 μL 0.5% phosphoric acid. This mixture was allowed to stand for 5 minutes prior to filtration on a vacuum manifold. The filter plate was washed with 5 successive additions of 300 μL 0.5% phosphoric acid. The filtration plate was air dried for 10 minutes before sealing the bottom. After addition of scintillation fluid to the sealed plate, phosphorylated peptide was quantified in a scintillation counter.

[3] = molecular target: CDK2 complexed with cyclin A (Homo sapiens, UniProt P24941); experiment: as above; conditions: 0.1 mM ATP, read-out: CDK 2 Activity*
Protocol: as §1

KDR, sequence (P35968 20-1356): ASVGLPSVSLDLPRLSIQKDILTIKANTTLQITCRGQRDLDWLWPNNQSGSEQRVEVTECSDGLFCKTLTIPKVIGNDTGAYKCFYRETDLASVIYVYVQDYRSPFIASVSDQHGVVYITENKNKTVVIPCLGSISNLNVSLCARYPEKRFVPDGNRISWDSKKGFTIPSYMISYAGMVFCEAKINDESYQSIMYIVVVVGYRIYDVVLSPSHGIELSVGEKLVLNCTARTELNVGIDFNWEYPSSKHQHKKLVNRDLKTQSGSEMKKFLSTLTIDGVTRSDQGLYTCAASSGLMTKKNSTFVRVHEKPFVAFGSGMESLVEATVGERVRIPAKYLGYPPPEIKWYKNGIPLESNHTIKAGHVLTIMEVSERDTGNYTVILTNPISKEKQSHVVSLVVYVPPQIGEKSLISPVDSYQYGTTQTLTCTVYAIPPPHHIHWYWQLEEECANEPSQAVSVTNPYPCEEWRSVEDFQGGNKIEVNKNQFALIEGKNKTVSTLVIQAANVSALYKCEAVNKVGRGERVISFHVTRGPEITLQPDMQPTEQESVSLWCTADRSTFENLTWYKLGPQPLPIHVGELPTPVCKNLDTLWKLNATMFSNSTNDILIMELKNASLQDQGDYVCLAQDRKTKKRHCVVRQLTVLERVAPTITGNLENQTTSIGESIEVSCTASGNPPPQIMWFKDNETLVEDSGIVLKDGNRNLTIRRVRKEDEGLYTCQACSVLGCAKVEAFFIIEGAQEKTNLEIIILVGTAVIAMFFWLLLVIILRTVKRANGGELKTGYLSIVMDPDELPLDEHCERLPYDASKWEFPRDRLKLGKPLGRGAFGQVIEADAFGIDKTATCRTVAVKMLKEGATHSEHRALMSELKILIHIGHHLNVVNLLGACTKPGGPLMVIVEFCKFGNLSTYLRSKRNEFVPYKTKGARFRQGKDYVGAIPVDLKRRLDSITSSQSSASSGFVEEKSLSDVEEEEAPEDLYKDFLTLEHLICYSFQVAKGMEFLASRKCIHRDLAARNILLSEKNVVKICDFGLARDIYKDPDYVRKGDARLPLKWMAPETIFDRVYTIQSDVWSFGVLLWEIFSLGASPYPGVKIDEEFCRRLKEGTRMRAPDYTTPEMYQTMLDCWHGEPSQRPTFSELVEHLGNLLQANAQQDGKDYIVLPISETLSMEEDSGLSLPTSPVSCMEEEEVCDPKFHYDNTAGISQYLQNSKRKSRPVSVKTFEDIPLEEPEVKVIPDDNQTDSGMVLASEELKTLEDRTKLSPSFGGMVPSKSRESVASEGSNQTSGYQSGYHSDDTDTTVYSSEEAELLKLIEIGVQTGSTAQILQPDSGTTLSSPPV

Row | SMILES | IC50 [1] [µM] | IC50 [2] [µM] | IC50 [3] [µM]
1 | NC(=O)N/N=C/c1cc(-c2ccc(O)cc2)ccc1O [Example 22, 5-(4-Hydroxyphenyl)salicylaldehyde semicarbazone hydrochloride] | 1 to 20 | < 0.5 | < 0.5
2 | NC(=S)N/N=C/c1cc(-c2ccc(O)c(F)c2)ccc1O [Example 23, 5-(3-Fluoro-4-hydroxyphenyl)salicylaldehyde thiosemicarbazone] | 1 to 20 | < 0.5 | < 0.5
3 | NC(=O)N/N=C/c1cc(-c2ccc(O)c(F)c2)ccc1O [Example 24, 5-(3-Fluoro-4-hydroxyphenyl)salicylaldehyde semicarbazone hydrochloride] | 1 to 20 | < 0.5 | < 0.5
4 | NC(=S)N/N=C/c1cc(-c2ccc(O)c(O)c2)ccc1O [Example 25, 5-(3,4-Dihydroxyphenyl)salicylaldehyde thiosemicarbazone] | < 1 | < 0.5 | < 0.5
5 | NC(=S)N/N=C/c1cc(-c2ccc3[nH]ccc3c2)ccc1O [Example 36, 5-(5-Indolyl)salicylaldehyde thiosemicarbazone] | 20 to 50 | < 0.5 | < 0.5
6 | Nc1nccc(-c2cc(-c3ccc(O)cc3)ccc2O)n1 [Example 57, 3-(2-Amino-pyrimidin-4-yl)-biphenyl-4,4′-diol] | < 1 | < 0.5 | < 0.5
7 | Nc1nc(N)nc(-c2cc(-c3ccc(O)cc3)ccc2O)n1 [Example 58, 3-(4.6-Diamino-[1,3,5]triazin-2-yl)-biphenyl-4,4′-diol] | < 1 | < 0.5 | < 0.5
8 | Nc1nccc(-c2cc(-c3ccc(C=O)o3)ccc2O)n1 [Example 59, 5-[3-(2-Amino-pyrimidin-4-yl)-4-hydroxy-phenyl]-furan-2-carbaldehyde] | < 1 | 0.5 to 2 | 0.5 to 2
9 | Nc1cc(-c2ccc(O)c(-c3ccnc(N)n3)c2)ccn1 [Example 67, 4-(2-Amino-pyridin-4-yl)-2-(2-amino-pyrimidin-4-yl)-phenol] | < 1 |  | < 0.5
10 | Nc1nc(N[C@@H](CO)c2ccccc2)cc(-c2cc(-c3ccc4[nH]ccc4c3)ccc2O)n1 [Example 93, 2-[2-Amino-6-(2-hydroxy-1 R-phenyl-ethylamino)-pyrimidin-4-yl]-4-(1H-indol-5-yl)-phenol] | < 1 |  | 
11 | Nc1cccc(-c2ccc(O)c(-c3ccnc(N)n3)c2)c1 [Example 94, 3′-Amino-3-(2-amino-pyrimidin-4-yl)-biphenyl-4-ol] | 1 to 20 |  | 
12 | CC(C)(C)OC(=O)n1cccc1-c1ccc(O)c(-c2ccnc(N)n2)c1 [Example 95, 2-[3-(2-Amino-pyrimidin-4-yl)-4-hydroxy-phenyl]-pyrrole-1-carboxylic acid t-butyl ester] | 1 to 20 |  | 
13 | Nc1nc(N[C@@H](CO)Cc2c[nH]c3ccccc23)cc(-c2cc(-c3ccc(O)cc3)ccc2O)n1 [Example 96, 3-{2-Amino-6-[2-hydroxy-1R-(1H-indol-3-ylmethyl)-ethylamino]-pyrimidin-4-yl}-biphenyl-4,4′-diol] | 1 to 20 |  | 
14 | Nc1nc(N[C@H](CO)c2ccccc2)cc(-c2cc(-c3ccc(O)cc3)ccc2O)n1 [Example 97, 3-[2-Amino-6-(2-hydroxy-1S-phenyl-ethylamino)-pyrimidin-4-yl]-biphenyl-4,4′-diol] | < 1 |  | 
15 | COc1ccc(Nc2cc(-c3cc(-c4ccc(O)cc4)ccc3O)nc(N)n2)cc1 [Example 98, 3-[2-Amino-6-(4-methoxy-phenylamino)-pyrimidin-4-yl]-biphenyl-4,4′-diol] | < 1 |  | 
16 | Nc1nc(N[C@H](CO)CSCc2ccccc2)cc(-c2cc(-c3ccc(O)cc3)ccc2O)n1 [Example 99, 3-[2-Amino-6-(2-benzylsulfanyl-1R-hydroxymethyl-ethylamino)-pyrimidin-4-yl]-biphenyl-4,4′-diol] | < 1 |  | 
17 | Nc1nc(NCCc2c[nH]c3ccccc23)cc(-c2cc(-c3ccc(O)cc3)ccc2O)n1 [Example 100, 3-{2-Amino-6-[2-(1-indol-3-yl)-ethylamino]-pyrimidin-4-yl} biphenyl-4,4′-diol] | < 1 |  | 
18 | Nc1nc(-c2cc(-c3ccc(O)cc3)ccc2O)cc(N2CCN(Cc3ccccc3)CC2)n1 [Example 101, 3-[2-Amino-6-(4-benzyl-piperazin-1-yl)-pyrimidin-4-yl]-biphenyl-4,4′-diol] | 1 to 20 |  | 
19 | Nc1nc(N[C@@H](CO)Cc2c[nH]c3ccccc23)cc(-c2cc(-c3ccc(O)cc3)ccc2O)n1 [Example 102, 3-{2-Amino-6-[2-hydroxy-1R-(1 H-indol-3-ylmethyl)-ethylamino]-pyrimidin-4-yl}-biphenyl-4,4′-diol] | 1 to 20 |  | 

Results, then the molecule that gave them:

Row | IC50 [1] [µM] | IC50 [2] [µM] | IC50 [3] [µM] | SMILES
20 | 1 to 20 |  |  | CC(C)[C@@H](CO)Nc1cc(-c2cc(-c3ccc(O)cc3)ccc2O)nc(N)n1 [Example 103, 3-[2-Amino-6-(I -hydroxymethyl-2-methyl-propylamino)pyrimidin-4-yl]-biphenyl-4.4′-diol]
21 | 1 to 20 |  |  | CN1CCN(c2cc(-c3cc(-c4ccc(O)cc4)ccc3O)nc(N)n2)CC1 [Example 104, 3-[2-Amino-6-(4-methyl-piperazin-1-yl)-pyrimidin-4-yl]-biphenyl-4.4′-diol]
22 | 1 to 20 |  |  | Nc1nc(NCCN2CCOCC2)cc(-c2cc(-c3ccc(O)cc3)ccc2O)n1 [Example 105, 3-[2-Amino-6-(2-morpholin-4-yl-ethylamino)-pyrimidin-4-yl]-biphenyl-4,4′-diol]
23 | < 1 |  |  | Nc1nc(NCCc2ccccn2)cc(-c2cc(-c3ccc(O)cc3)ccc2O)n1 [Example 106, 3-[2-Amino-6-(2-pyridin-2-yl-ethylamino)-pyrimidin-4-yl]-biphenyl-4,4′-diol]
24 | 1 to 20 |  |  | Nc1nc(-c2cc(-c3ccc(O)cc3)ccc2O)cc(N2CCSCC2)n1 [Example 107, 3-(2-Amino-6-thiomorpholin-4-yl-pyrimidin-4-yl)-biphenyl-4,4′-diol]
25 | < 1 |  |  | Nc1nc(NCc2ccccc2-c2ccccc2)cc(-c2cc(-c3ccc(O)cc3)ccc2O)n1 [Example 108, 3-{2-Amino-6-[(biphenyl-2-ylmethyl)-amino]-pyrimidin-4-yl}-biphenyl-4,4′-diol]
26 | < 1 |  |  | Nc1nc(Nc2cccc(Cl)c2)cc(-c2cc(-c3ccc(O)cc3)ccc2O)n1 [Example 109, 3-[2-Amino-6-(3-chloro-phenylamino)-pyrimidin-4-yl]-biphenyl-4,4′-diol]
27 | < 1 |  |  | Nc1nc(Nc2ccc(Cl)cc2)cc(-c2cc(-c3ccc(O)cc3)ccc2O)n1 [Example 110, 3-[2-Amino-6-(4-chloro-phenylamino)-pyrimidin-4-yl]-biphenyl-4,4′-diol]
28 | < 1 |  |  | COc1cccc(Nc2cc(-c3cc(-c4ccc(O)cc4)ccc3O)nc(N)n2)c1 [Example 111, 3-[2-Amino-6-(3-methoxy-phenylamino)-pyrimidin-4-yl]-biphenyl-4,4′-diol]
29 | < 1 |  |  | Nc1nc(N[C@@H](CO)c2ccccc2)cc(-c2cc(-c3ccc(O)cc3)ccc2O)n1 [Example 112, 3-[2-Amino-6-(2-hydroxy-1-phenyl-ethylamino)-pyrimidin-4-yl]-biphenyl-4,4′-diol]
30 | 1 to 20 |  |  | Nc1nc(-c2ccsc2)cc(-c2cc(-c3ccc(O)cc3)ccc2O)n1 [Example 113, 3-(2-Amino-6-thiophen-3-yl-pyrimidin-4-yl)-biphenyl-4,4′-diol]
31 | < 1 |  |  | Nc1nc(-c2ccc3[nH]ccc3c2)cc(-c2cc(-c3ccc(O)cc3)ccc2O)n1 [Example 114]
32 | 1 to 20 |  |  | Nc1nc(NCc2cccc(F)c2)cc(-c2cc(-c3ccc(O)cc3)ccc2O)n1 [Example 115, 3-[2-Amino-6-(3-fluoro-benzylamino)-pyrimidin-4-yl]-biphenyl-4,4′-diol]
33 | < 1 |  |  | Nc1nc(NCc2ccccc2F)cc(-c2cc(-c3ccc(O)cc3)ccc2O)n1 [Example 116]
34 | < 1 |  |  | COc1cccc(CNc2cc(-c3cc(-c4ccc(O)cc4)ccc3O)nc(N)n2)c1 [Example 117, 3-[2-Amino-6-(3-methoxy-benzylamino)-pyrimidin-4-yl]-biphenyl-4,4′-diol]
35 | < 1 |  |  | COc1ccc(CNc2cc(-c3cc(-c4ccc(O)cc4)ccc3O)nc(N)n2)cc1 [Example 118, 3-[2-Amino-6-(4-methoxy-benzylamino)-pyrimidin-4-yl]-biphenyl-4,4′-diol]
36 | 1 to 20 |  |  | Nc1nc(Nc2ccc(O)cc2F)cc(-c2cc(-c3ccc(O)cc3)ccc2O)n1 [Example 119, 3-[2-Amino-6-(2-fluoro-4-hydroxyphenylamino)-pyrimidin-4-yl]-biphenyl-4,4′-diol]
